From patent US20200222372A1 (Ovid Therapeutics Inc., priority 2017, published 2020)

Legend:
[1] = human, in vivo
onset of REM sleep = experiment: Delay of onset of REM sleep after falling asleep in narcoleptic patient; assay type: in vivo, human (narcoleptic patient); conditions: 0.5 mg to 25 mg gaboxadol or salt
Experimental: As mentioned above, people with narcolepsy frequently abnormally enter REM sleep within 15 minutes of falling asleep. […] Without wishing to be bound by any theory, symptoms associated with narcolepsy such as cataplexy, sleep paralysis, hallucinations, and automatic behaviors closely mimic the natural physiologic response that occurs during REM sleep. By inducing a more normal REM sleep architecture in narcoleptic patients, symptoms associated with narcolepsy are reduced or alleviated. […] In embodiments, the delay of onset of REM sleep is about 30 minutes or longer. In embodiments, the delay of onset of REM sleep is about 45 minutes or longer. In embodiments, the delay of onset of REM sleep is about 60 minutes or longer. In embodiments, the delay of onset of REM sleep is about 75 minutes or longer.

Compound: Oc1noc2c1CCNC2 [gaboxadol, 4,5,6,7-tetrahydroisoxazolo [5,4-c] pyridine-3-ol]
- CL for 10 mg IV (in CL/F row) [1]: 438 mL/min
- onset of REM sleep after falling asleep (onset of REM sleep): ≥ 30 min
